Results from US20060004055A1, “Derivative of 5-(4-bromophenyl)-1-(2,4-dichlorophenyl)-4-ethyl-N-(piperidine-1-yl)-1H-pyrazole-3-carboxamide, the preparation and therapeutic use thereof” (Sanofi-Aventis, priority 2002, published 2006).

Columns and labels:
[1] = target: cannabinoid CB1 receptors; assay: in vitro affinity for cannabinoid CB1 receptors (Rinaldi-Carmona et al., FEBS Letters 1994); format: binding; details: conditions of Rinaldi-Carmona et al., FEBS Letters, 1994, 350, 240-244
Sequence of cannabinoid CB1 receptors (P21554 whole entry): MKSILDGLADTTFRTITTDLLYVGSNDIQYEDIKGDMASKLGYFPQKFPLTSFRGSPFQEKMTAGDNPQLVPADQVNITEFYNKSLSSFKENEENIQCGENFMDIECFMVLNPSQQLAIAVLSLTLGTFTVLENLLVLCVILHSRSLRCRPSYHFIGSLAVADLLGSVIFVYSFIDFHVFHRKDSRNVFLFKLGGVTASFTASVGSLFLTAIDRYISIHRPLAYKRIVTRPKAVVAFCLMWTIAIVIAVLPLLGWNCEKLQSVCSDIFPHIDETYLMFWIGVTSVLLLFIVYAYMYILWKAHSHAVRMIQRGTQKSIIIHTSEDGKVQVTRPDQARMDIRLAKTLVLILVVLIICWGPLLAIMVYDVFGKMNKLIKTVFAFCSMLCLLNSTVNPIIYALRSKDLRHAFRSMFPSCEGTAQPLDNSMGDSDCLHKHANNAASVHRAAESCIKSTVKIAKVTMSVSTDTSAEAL

CCc1c(C(=O)NN2CCC(O)CC2)nn(-c2ccc(Cl)cc2Cl)c1-c1ccc(Br)cc1 [compound of formula (I), 5-(4-Bromophenyl)-1-(2,4-dichlorophenyl)-4-ethyl-N-(hydroxypiperidin-1-yl)-1H-pyrazole-3-carboxamide]
IC50 [1]: 0.032 µM
toxicity (toxicity): compatible with its use as a medicinal product
